Where two headings read alike, the source gives them in different places.

The target of one assay is α-glucosidase (Saccharomyces cerevisiae, UniProt P38158). Kind of assay: biochemical. On the procedure:
The α-glucosidase inhibitory assay was performed using a somewhat modified method of Kurihara et al.[44] For every reaction, […] p-nitrophenyl-α-D-glucopyranoside, 50 mL of 0.1 U mL^−1, α-glucosidase in 0.01 M phosphate buffer (pH 7.0), […] of sample solution (various concentrations of compound 1 with 5, 10, 25, 50 µM) were mixed. The mixture was kept at 37 °C for 30 minutes and added with 0.1 M Na2CO3. Mixture after reaction will be measured at a wavelength of 401 nm. The IC50 values represented the inhibitor concentration that suppressed 50% of enzyme activity. […] All experiments were performed in triplicate. The percentage inhibition was calculated using the following equation: α-glucosidase inhibition (%) = (Ac − At)/Ac × 100, where Ac is the absorbance of control (α-glucosidase, without sample) and At is the absorbance of test samples (α-glucosidase, with sample). The experimental results were processed using the GraphPad Prism 8 software.

Another assay concerns RAW264.7 cells. Kind of assay: Determination of NO production in LPS-treated RAW264.7 cells (Griess reagent). The format is cell-based. The conditions noted are these: for IC50: Mus musculus. On the procedure:
The production of nitric oxide (NO) was quantified by measuring the NO levels in cell culture supernatants using a previously method. In brief, RAW264.7 cells (ATCC, Rockville, MD, USA, 1 × 10^5 cells per well) were treated with 1 µg mL^−1 of LPS for 24 h, with and without the test compounds (1–100 µM). After incubation, the supernatant (100 µL) was mixed with 100 µL of Griess reagent. The viability of the remaining cells was assessed using an MTT-based colorimetric assay as described above.

A further assay deals with six bacterial strains. Kind of assay: Antibacterial preliminary screening, text statements on all strains together. The conditions noted are these: concentration of 10 µM. In kind it is cell-based. On the procedure:
It is based on combined biological activities of reported pyrrole sesquiterpenes and available screening models in our lab, including those regarding anti-inflammatory activities, antibacterial activities, and inhibition of α-glucosidase. […] To further evaluate the biological potential of compounds 1–6, we examined their antibacterial activities through preliminary screening at a concentration of 10 µM. The assays were conducted against three Gram-positive bacterial strains (Staphylococcus aureus, Bacillus subtilis, and Micrococcus luteus) and three Gram-negative strains (Salmonella typhimurium, Escherichia coli, and Klebsiella pneumoniae). This comparative screening aimed to determine whether any of these compounds could inhibit bacterial growth under identical conditions by conducting further experiments.
The antibacterial activities of compounds 1–6 were evaluated in 96-well plates using a modified broth microdilution method previously reported by our group. The MIC of the isolated compounds was determined against Staphylococcus aureus, Bacillus subtilis, Micrococcus luteus, Salmonella typhimurium, Escherichia coli, and Klebsiella pneumonia. Bacterial strains were cultured on TSB (Tryptic Soy Broth) agar plates and incubated at 37 °C for 24 h. […]

In the next assay the test system is Micrococcus luteus. Kind of assay: MIC measurement (broth microdilution). In kind it is cell-based. The conditions noted are these: Gram-positive; screening at 10.0 µM. The protocol: (§1) The antibacterial activities of compounds 1–6 were evaluated in 96-well plates using a modified broth microdilution method previously reported by our group. The MIC of the isolated compounds was determined against Staphylococcus aureus, Bacillus subtilis, Micrococcus luteus, Salmonella typhimurium, Escherichia coli, and Klebsiella pneumonia. Bacterial strains were cultured on TSB (Tryptic Soy Broth) agar plates and incubated at 37 °C for 24 h. A single colony was transferred to Muller–Hinton broth (MHB), continuously incubated and harvested after 24 h at 37 °C and centrifuged at 250 rpm. The suspensions were adjusted to 0.5 McFarland standard, diluted to achieve a final concentration of approximately 5 × 10^5 CFU mL^−1 and added to each well. All compounds were dissolved in DMSO and dispensed into 96-well plates at a starting concentration of 10 µM. Kanamycin was used as a positive control.
Background: Broth dilution looks for growth in wells or tubes with falling amounts of substance.

For a further assay, the system named is Staphylococcus aureus. Kind of assay: MIC measurement (broth microdilution). The format is cell-based. The conditions noted are these: Gram-positive; screening at 10.0 µM. The protocol:
as §1

A further assay deals with Bacillus subtilis. Description: MIC measurement (broth microdilution). In kind it is cell-based. The conditions noted are these: Gram-positive; screening at 10.0 µM. On the procedure:
as §1

In a further assay the test system is Escherichia coli. Kind of assay: MIC measurement (broth microdilution). The conditions noted are these: Gram-negative; screening at 10.0 µM. The format is cell-based. The protocol:
as §1

The subject of the next assay is Klebsiella pneumoniae. Description: MIC measurement (broth microdilution). The format is cell-based. The conditions noted are these: Gram-negative; screening at 10.0 µM. On the procedure: as §1
In a further assay the test system is Salmonella typhimurium. Kind of assay: MIC measurement (broth microdilution). In kind it is cell-based. The conditions noted are these: Gram-negative; screening at 10.0 µM. On the procedure: as §1, with “The” for “The antibacterial activities of compounds 1–6 were evaluated in 96-well plates using a modified broth microdilution method previously reported by our group. The”

The mark [1] stands for this setting: RAW264.7, 24 h, read-out: NO production (IC50, µM).

Sequence of α-glucosidase (P38158 whole entry): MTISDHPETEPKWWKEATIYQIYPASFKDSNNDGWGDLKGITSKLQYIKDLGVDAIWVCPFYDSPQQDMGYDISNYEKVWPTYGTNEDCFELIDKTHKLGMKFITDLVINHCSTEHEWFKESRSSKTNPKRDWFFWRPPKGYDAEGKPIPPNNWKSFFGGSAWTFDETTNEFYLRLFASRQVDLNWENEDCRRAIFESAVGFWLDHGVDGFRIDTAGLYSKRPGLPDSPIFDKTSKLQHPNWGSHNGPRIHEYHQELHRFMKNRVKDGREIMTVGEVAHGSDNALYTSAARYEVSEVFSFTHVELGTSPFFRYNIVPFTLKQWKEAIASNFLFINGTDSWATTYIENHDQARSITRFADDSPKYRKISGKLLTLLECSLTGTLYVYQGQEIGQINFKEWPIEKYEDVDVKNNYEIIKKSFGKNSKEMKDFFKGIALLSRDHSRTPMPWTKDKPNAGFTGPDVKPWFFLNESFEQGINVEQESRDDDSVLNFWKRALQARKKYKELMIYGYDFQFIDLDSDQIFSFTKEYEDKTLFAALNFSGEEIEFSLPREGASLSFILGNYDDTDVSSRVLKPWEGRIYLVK

By IC50 is commonly meant the point on the concentration scale where inhibition reaches its midpoint. On α-glucosidase, `CC[C@H](CC[C@@H](C)[C@H]1CC[C@H]2[C@@H]3CCC4=CC(=O)CC[C@]4(C)[C@H]3CC[C@]12C)C(C)C` (stereo in doubt) [Compound 3, stigmast-4-en-3-one] had a half-maximal inhibitory concentration (IC50) greater than 50 µM.

As for `CC1=C(O)C(=O)C=C2C1=CC=C1[C@@]2(C)CC[C@@]2(C)[C@@H]3C[C@](C)(C(=O)O)CC[C@]3(C)CC[C@]12C` [Celastrol, reference compound], in the assay with RAW264.7 cells (RAW264.7 cells, 1 µg mL^−1 LPS, 24 h, read-out: NO production (IC50)), the IC50 was 1.2 µM.

Consider `CO[C@@H](CC(=O)c1ccc[nH]1)C(N)=O` [Compound 1, lotusin A], for which the IC50 on α-glucosidase (pH 7.0, 37 °C, 30 minutes, read-out: α-Glucosidase (IC50)) worked out at 18.2 ± 0.17 µM; in the assay with RAW264.7 cells (setting [1]) it was 21.5 ± 0.3 µM. In addition, in the assay on six bacterial strains, the “inhibition of microbial growth” value is “no inhibition”.

Consider `CC(C)CCCC(C)C1CCC2C3CCC4CC(O)CCC4(C)C3CCC12C` (centres unmarked) [Compound 2, cholestanol], for which the IC50 on α-glucosidase is greater than 50 µM; with RAW264.7 cells (setting [1]) it was greater than 100 µM. Further, the “NO production (IC50, µM)” value in the assay on RAW264.7 cells (RAW264.7 cells, 1 µg mL^−1 LPS, 24 h) was “did not show any activity”.

`O=c1c(O)c(-c2ccc(O)c(O)c2)oc2cc(O)cc(O)c12` [Compound 4, quercetin] gave an IC50 at α-glucosidase greater than 50 µM.

In the case of `COc1cc(-c2oc3cc(O)cc(O)c3c(=O)c2O)ccc1O` [Compound 5, isorhamnetin], the IC50 against α-glucosidase was greater than 50 µM.

With `O=c1cc(-c2ccc(O)cc2O)oc2cc(O)cc(O)c12` [Compound 6, norartocarpetin], the IC50 at α-glucosidase (pH 7.0, 37 °C, 30 minutes, class symbol, read-out: α-Glucosidase (IC50)) was greater than 50 µM.

In the case of `NC[C@H]1O[C@H](O[C@H]2[C@H](O)[C@@H](O[C@H]3O[C@H](CO)[C@@H](O)[C@H](N)[C@H]3O)[C@H](N)C[C@@H]2N)[C@H](O)[C@@H](O)[C@@H]1O` [Kanamycin], the “MIC (10.0 µM) Micrococcus luteus” value in the assay on Micrococcus luteus is “A”. Also, the “MIC (10.0 µM) Staphylococcus aureus” value with Staphylococcus aureus is recorded as “A”. Besides, the “MIC (10.0 µM) Bacillus subtilis” value against Bacillus subtilis is “A”. Further, in the assay with Escherichia coli, the “MIC (10.0 µM) Escherichia coli” value is reported as “A”. Besides, in the assay on Klebsiella pneumoniae, the “MIC (10.0 µM) Klebsiella pneumoniae” value is on record as “A”. Also, the “MIC (10.0 µM) Salmonella typhimurium” value with Salmonella typhimurium was “A”.
